Results on 5 compounds are retold here after publication PMC5571287 (Antimicrobial Agents and Chemotherapy, 2017).

The subject of data set [1] is RSV A2. Description: CPE assay, RSV A2 in HEp-2 cells (resazurin). As to conditions: for IC50: read-out: RSV A2 IC50; for IC90: read-out: RSV A2 IC90. Type of data set: cell-based, respiratory syncytial virus.
For data set [2], the system named is Wild type RSVA2 (vehicle control virus). Description: CPE assay, vehicle control (wild type) RSV A2 virus. As to conditions: for IC50: read-out: Wild type RSVA2 IC50; for IC90: read-out: Wild type RSVA2 IC90.
In data set [3] the test system is RSV B WST. The data set can be described thus: CPE assay, RSV B Washington in HEp-2 cells (resazurin). Type of data set: cell-based, respiratory syncytial virus.
Data set [4] concerns PC786 escape mutant (Y1631H) of RSV A2. The format is cell-based, respiratory syncytial virus. The conditions noted are these: for IC50: read-out: PC786 escape mutant IC50, N=3, after 6th passage; for IC50 / IC90: CPE; for IC90: read-out: PC786 escape mutant IC90, N=3; for activity on CPE of the PC786 escape mutant, in words: vs wild type.
In data set [5] the target is minigenome construct comprising the L protein, M2-1, N, and P of RSV A2 (Human respiratory syncytial virus A, UniProt P28887). Description: cell-based.
For data set [6], the system named is RSV A2. Description: RSV F protein cell-based ELISA in BEAS-2B cells, washout / nonwashout. As to conditions: human respiratory syncytial virus, read-out: IC50, F protein expressed on cell surfaces. How it is done:
Approximately 72 h after BEAS-2B cells were seeded in 96-well plates (at 4 × 10^4/ml; 100 μl/well), the medium in the plates was removed and replaced with 200 μl of fresh LHC-8 medium. […] For nonwashout plates, the compounds and DMSO (1 μl/well) were applied immediately after infection. On day 3 postinfection, supernatant was aspirated and the cells were fixed with 4% formaldehyde (100 μl in PBS solution) for 20 min at room temperature (RT), washed three times with wash buffer (WB) (200 μl; PBS containing 0.05% Tween 20), and incubated with blocking buffer (100 μl; 5% bovine serum albumin [BSA] in wash buffer) for 1 h. […] Abcam plc, Cambridge, UK). After a washing, cells were incubated with a horseradish peroxidase (HRP)-conjugated anti-mouse IgG antibody (50 μl/well; 1:2,000, Abcam) for 1 h. Tetramethylbenzidine (TMB) substrate (50 μl) was then added after two washings with WB and one with PBS, and the reaction was stopped by the addition of aqueous sulfuric acid (2 N; 50 μl/well). The resultant signal was determined colorimetrically (OD at 450 nm [OD450] with a reference wavelength of 655 nm) in a microplate reader (Multiskan FC; Thermo Fisher Scientific). Cells were then washed, and 0.5% crystal violet solution ([…]) was applied for 30 min. […] The measured F protein signals (OD450 − OD655 readings) were corrected for cell number (OD595 readings) by dividing the OD450–655 by the OD595 readings.

A short description of data set [7]: in vitro. As to conditions: human.
Data set [8] can be described thus: Cell viability in HEp-2 cells (resazurin). The conditions noted are these: human, HEp-2 cells. A general note: The colour change of resazurin is a common sign of viable cells or microbes.
Data set [9] relates to RSV A USU\v1225. The data set can be described thus: CPE 2, neutral red 96-well CPE assay in HEp-2. The format is cell-based. As to conditions: human respiratory syncytial virus. As to the method: (§1) For RSV A 2001/3-12, 1998/3-2, and USU⃥v1225, CPE was induced in HEp-2 cells for 7 days and the plates were then stained with neutral red dye for approximately 2 h. The intracellular incorporated dye was extracted in 50:50 Sorensen citrate buffer-ethanol and the absorbance read on a spectrophotometer. The optical density (OD) of test wells was converted to percentage of cell and virus controls. […] The virus inocula were ∼63 50% cell culture infectious doses (CCID50) per well for 2001/3-12, ∼40 CCID50/well for 1998/3-2, and ∼32 CCID50/well for USU\v1225. This assay was conducted in Utah State University (Logan, UT).

Data set [10] relates to RSV A 1998/3-2. The data set can be described thus: CPE 2, neutral red 96-well CPE assay in HEp-2. Type of data set: cell-based. As to conditions: human respiratory syncytial virus. As to the method:
as §1

The test system of data set [11] is RSV A 2001/3-12. The data set can be described thus: CPE 2, neutral red 96-well CPE assay in HEp-2. The conditions noted are these: human respiratory syncytial virus. The format is cell-based. As to the method:
as §1

Data set [12] relates to RSV A Memphis 37c. Description: CPE 1, resazurin 384-well CPE assay in HEp-2. Type of data set: cell-based. The conditions noted are these: human respiratory syncytial virus. How it is done:
(§2) For known clinical strains (RSV A 1997/12-35, 2001/2-20, 200/3-4, and Memphis 37), a 384-well-format resazurin-based CPE assay was conducted.

In data set [13] the test system is RSV A 1997/12-35. The data set can be described thus: CPE 1, resazurin 384-well CPE assay in HEp-2. Type of data set: cell-based. The conditions noted are these: human respiratory syncytial virus. How it is done: as §2
The test system of data set [14] is RSV A 2000/3-4. Description: CPE 1, resazurin 384-well CPE assay in HEp-2. Type of data set: cell-based. The conditions noted are these: human respiratory syncytial virus. How it is done:
as §2

Data set [15] relates to RSV A 2001/2-20. Description: CPE 1, resazurin 384-well CPE assay in HEp-2. The format is cell-based. As to conditions: human respiratory syncytial virus. How it is done:
as §2

Data set [16] concerns RSV A2. Description: Time-of-addition assay and MOI dependency, CPE (methylene blue) in HEp-2. The format is cell-based. The conditions noted are these: human respiratory syncytial virus.
The mark [17] stands for this setting: CPE, HEp-2, n = 3, added with virus infection, ALS-8112 24 h prior.
[18] abbreviates: human respiratory syncytial virus, HEp-2.
Setting [19] is: human respiratory syncytial virus.

Like-named read-outs stand apart in the source and are kept apart here.

Sequence of minigenome construct comprising the L protein, M2-1, N, and P of RSV A2 (P28887 whole entry): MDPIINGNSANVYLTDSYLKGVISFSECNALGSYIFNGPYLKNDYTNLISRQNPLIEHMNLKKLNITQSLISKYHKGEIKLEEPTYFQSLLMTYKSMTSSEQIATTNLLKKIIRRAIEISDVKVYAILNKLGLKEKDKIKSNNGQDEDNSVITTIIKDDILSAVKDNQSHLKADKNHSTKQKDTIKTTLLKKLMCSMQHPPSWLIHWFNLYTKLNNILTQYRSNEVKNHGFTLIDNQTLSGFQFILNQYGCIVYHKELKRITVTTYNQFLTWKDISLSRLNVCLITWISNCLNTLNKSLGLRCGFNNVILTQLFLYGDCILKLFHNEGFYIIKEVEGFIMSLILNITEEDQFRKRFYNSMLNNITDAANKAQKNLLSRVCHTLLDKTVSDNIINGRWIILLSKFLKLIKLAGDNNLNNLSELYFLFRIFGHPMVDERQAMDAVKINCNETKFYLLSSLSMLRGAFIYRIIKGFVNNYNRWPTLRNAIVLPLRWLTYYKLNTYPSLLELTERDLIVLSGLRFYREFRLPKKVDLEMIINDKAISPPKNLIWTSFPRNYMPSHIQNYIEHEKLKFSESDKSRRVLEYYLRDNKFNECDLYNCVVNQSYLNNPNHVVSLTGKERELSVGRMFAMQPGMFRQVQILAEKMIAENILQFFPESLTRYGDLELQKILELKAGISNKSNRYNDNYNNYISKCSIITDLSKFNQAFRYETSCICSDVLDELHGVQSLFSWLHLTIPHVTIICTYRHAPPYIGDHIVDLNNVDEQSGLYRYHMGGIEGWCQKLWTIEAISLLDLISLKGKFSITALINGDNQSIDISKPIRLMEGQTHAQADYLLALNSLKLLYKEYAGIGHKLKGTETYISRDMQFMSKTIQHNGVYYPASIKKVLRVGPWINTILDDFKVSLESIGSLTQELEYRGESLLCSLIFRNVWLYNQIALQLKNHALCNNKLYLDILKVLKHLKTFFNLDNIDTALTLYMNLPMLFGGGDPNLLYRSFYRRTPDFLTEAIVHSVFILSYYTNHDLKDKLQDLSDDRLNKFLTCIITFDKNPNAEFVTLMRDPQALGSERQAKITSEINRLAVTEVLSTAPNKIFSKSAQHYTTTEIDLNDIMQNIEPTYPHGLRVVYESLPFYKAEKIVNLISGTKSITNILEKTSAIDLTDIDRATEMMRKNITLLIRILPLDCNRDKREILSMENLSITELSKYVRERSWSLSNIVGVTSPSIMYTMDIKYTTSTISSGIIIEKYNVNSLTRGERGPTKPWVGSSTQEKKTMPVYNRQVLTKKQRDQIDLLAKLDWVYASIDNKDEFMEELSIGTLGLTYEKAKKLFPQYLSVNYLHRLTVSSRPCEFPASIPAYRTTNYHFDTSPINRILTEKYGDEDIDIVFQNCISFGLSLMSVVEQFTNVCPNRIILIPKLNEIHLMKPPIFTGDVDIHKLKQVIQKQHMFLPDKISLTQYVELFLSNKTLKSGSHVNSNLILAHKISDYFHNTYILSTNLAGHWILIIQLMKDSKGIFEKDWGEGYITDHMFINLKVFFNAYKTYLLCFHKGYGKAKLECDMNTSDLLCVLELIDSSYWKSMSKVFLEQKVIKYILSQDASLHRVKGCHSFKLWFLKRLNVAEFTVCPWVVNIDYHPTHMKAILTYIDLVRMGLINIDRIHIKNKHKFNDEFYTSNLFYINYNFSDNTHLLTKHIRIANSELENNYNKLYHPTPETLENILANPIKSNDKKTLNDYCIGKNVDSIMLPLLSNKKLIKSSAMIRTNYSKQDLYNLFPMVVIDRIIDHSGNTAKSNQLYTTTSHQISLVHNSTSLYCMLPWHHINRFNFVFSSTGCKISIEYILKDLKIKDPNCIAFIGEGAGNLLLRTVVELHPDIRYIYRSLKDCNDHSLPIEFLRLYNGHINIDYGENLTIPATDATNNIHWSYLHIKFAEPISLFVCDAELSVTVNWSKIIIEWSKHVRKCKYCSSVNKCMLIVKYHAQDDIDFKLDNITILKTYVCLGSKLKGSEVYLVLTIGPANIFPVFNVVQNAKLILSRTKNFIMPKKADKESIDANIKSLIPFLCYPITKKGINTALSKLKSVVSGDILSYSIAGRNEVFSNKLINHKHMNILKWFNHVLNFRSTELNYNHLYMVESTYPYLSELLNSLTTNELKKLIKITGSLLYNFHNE
Sequence of minigenome construct comprising the L protein, M2-1, N, and P of RSV A2 (P03421 whole entry, further chain): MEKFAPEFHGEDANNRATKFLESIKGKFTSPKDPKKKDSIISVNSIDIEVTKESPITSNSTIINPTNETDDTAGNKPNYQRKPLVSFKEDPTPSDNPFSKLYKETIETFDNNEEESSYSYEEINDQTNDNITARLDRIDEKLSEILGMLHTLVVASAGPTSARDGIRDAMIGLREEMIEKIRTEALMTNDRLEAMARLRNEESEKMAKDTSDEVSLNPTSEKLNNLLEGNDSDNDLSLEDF

One may read the IC50 as the midpoint of a concentration-inhibition curve. A word on the IC90: it is the concentration at which the effect reaches the 90% level. For `COc1ccc(CCNCCCN2C(=O)c3c(cc(N)c4[nH]c(-c5ccc(C)c([N+](=O)[O-])c5)nc34)C(C)(C)C2=O)cc1OC` [BI compound D], the 50% inhibitory concentration (IC50) in data set [1] (setting [17]) worked out at 57.6 ± 1.53 nM; in [2] (CPE, N=3, vehicle control virus), 11.9 nM; in data set [3] (setting [17]) it was 47.8 ± 2.96 nM; in data set [4] it was 87.4 nM; in [5], 55.3 nM. For the same compound, the IC90 in data set [1] (setting [17]) was greater than 333 nM; in [2] (CPE, N=3), 79.9 nM; in [3] (setting [17]) it was greater than 1660 nM; in data set [4] it was 161 nM; in [5], 233 nM. For the same compound, the “activity on CPE of the PC786 escape mutant, in words” value in data set [4] was “slightly reduced”.

In the case of `Cc1ccc(CCCO)c(NCc2ccc3nc(NCCCN4CCOCC4)n(Cc4nc(C)ccc4O)c3c2)c1` [TMC35315], the IC50 in [1] (setting [17]) turned out to be 0.78 ± 0.0093 nM; in data set [3] (setting [17]), 0.85 ± 0.017 nM. In addition, the IC90 was found to be 1.29 ± 0.015 nM in [1] (setting [17]) and 2.63 ± 0.19 nM in data set [3] (setting [17]).

Take `NC(=O)c1ncn([C@@H]2O[C@H](CO)[C@@H](O)[C@H]2O)n1` [Ribavirin]: the 50% inhibitory concentration (IC50) in data set [6] (2 h exposure then 24-h washout before inoculation) was 253000 nM; in [6] (nonwashout (sustained presence of drug)), 6000 nM; in data set [1] (setting [18]) it was greater than 16400 nM; in data set [3] (setting [18]), 10300 nM. Besides, the IC90 in [1] (setting [18]) and in [3] (setting [18]) was greater than 16400 nM in each case. In addition, the CC50 in data set [7] was 202000 nM.

Compound `Nc1ccn([C@@H]2O[C@@](CO)(CCl)[C@@H](O)[C@H]2F)c(=O)n1` [ALS-8112, reference compound] registered a CC50 in data set [8] greater than 341000 nM. Further, the IC50 is 455 ± 16 nM in data set [1] (setting [18]); 647 ± 44.2 nM in [3] (setting [18]); 880 nM in [9]; 1500 nM in data set [10]; 3200 nM in [11]; 398 nM in data set [12]. Besides, the IC50 was determined as 693 nM in data set [13], 515 nM in [14] and 768 nM in data set [15]. For the same compound, the concentration for an effect of 90% (IC90) in [1] (setting [18]) is 1130 nM; in [3] (setting [18]), 2130 nM; in data set [5] (luciferase, HEp-2, wild-type L protein), 831 nM.

As for `Cc1cn2nc([C@@H]3CCCCN3C(=O)c3cc(Cl)ccc3NS(C)(=O)=O)cc2nc1N1CC[C@H](N)C1` [GS-5806, reference compound], the concentration for half-maximal inhibition (IC50) came out at 0.45 ± 0.018 nM in [1] (setting [18]); 0.0018 nM in data set [2] (setting [19]); 0.17 ± 0.043 nM in [3] (setting [18]); 1.62 nM in data set [16] (HEp-2, 24 h, MOI 0.02, n = 3, read-out: IC50 at treatment time 24 h postinoculation); 2.05 nM in [16] (HEp-2, 24 h, MOI 0.1, n = 3, read-out: IC50 at treatment time 24 h postinoculation); 11.7 nM in data set [16] (HEp-2, 24 h, MOI 1.0, n = 3, read-out: IC50 at treatment time 24 h postinoculation). For the same compound, the half-inhibitory concentration (IC50) in data set [16] (HEp-2, 48 h, read-out: IC50 at treatment time 48 h postinoculation, MOI 0.02, n = 3) was 6.46 nM; in [16] (HEp-2, 48 h, read-out: IC50 at treatment time 48 h postinoculation, MOI 0.1, n = 3), greater than 188 nM; in data set [16] (HEp-2, 48 h, read-out: IC50 at treatment time 48 h postinoculation, MOI 1.0, n = 3) it was greater than 188 nM; in data set [16] (HEp-2, 72 h, MOI 0.02, n = 3, read-out: IC50 at treatment time 72 h postinoculation) it was greater than 188 nM; in data set [16] (HEp-2, 72 h, MOI 0.1, n = 3, read-out: IC50 at treatment time 72 h postinoculation), greater than 188 nM; in [16] (HEp-2, 72 h, MOI 1.0, n = 3, read-out: IC50 at treatment time 72 h postinoculation), greater than 188 nM. Moreover, the half-inhibitory concentration (IC50) in [16] (HEp-2, MOI 0.02, n = 3, CPE at 144 h, read-out: IC50 at treatment time 0 h postinoculation) is 0.38 nM; in [16] (HEp-2, MOI 0.1, n = 3, CPE at 144 h, read-out: IC50 at treatment time 0 h postinoculation) it was 0.57 nM; in data set [16] (HEp-2, MOI 1.0, n = 3, CPE at 144 h, read-out: IC50 at treatment time 0 h postinoculation) it was 1.05 nM; in data set [4], less than 0.188 nM. The IC90 in data set [1] (setting [18]) is 0.93 ± 0.098 nM; in data set [2] (setting [19]), 0.0048 nM; in data set [3] (setting [18]), greater than 126 nM; in data set [4], less than 0.188 nM. In addition, the “activity on CPE of the PC786 escape mutant, in words” value in [4] was “remained susceptible”.
